# In patent publication US12006527B2, “Coryneform bacterium transformant and method for producing 2-phenylethanol using same” (Research Institute of Innovative Technology for the Earth, priority 2018, dated 2024):
# Entries after “also recorded” stand apart in the source; their conditions may differ.
# How the values were obtained:
# Experiment in all cases: Growth inhibition by 2-phenylethanol in aerobic culture (OD610)
# Assay type in all cases: cell-based
# [1] = tested on: Escherichia coli MG1655; conditions: aerobic shaking culture, LB-liquid medium
# Protocol: Tests regarding growth inhibition by 2-phenylethanol in aerobic culture were carried out on Corynebacterium glutamicum, Escherichia coli, Pseudomonas putida, and Kluyveromyces marxianus. Escherichia coli MG1655 was applied to an LB-agar plate [containing 1% polypeptone, 0.5% yeast extract, 0.5% sodium chloride, and 1.5% agar], and was left to stand at 37° C. for 15 hours in a dark place. One platinum loop of Escherichia coli MG1655 grown on the plate described above was inoculated in a test tube having therein 10 ml of an LB-liquid medium [containing 1% polypeptone, 0.5% yeast extract, and 0.5% sodium chloride], and was subjected to aerobic shaking culture at 37° C. for 13 hours. Escherichia coli MG1655 grown under the above-described conditions was inoculated in 100 ml of the LB-liquid medium so that the initial bacterial cell concentration OD610=0.05 was achieved. Simultaneously, 2-phenylethanol was added so that the final concentrations thereof became 0, 10, 20, 30, 40, and 50 mM, and aerobic shaking culture was carried out at 33° C. The growth of bacterial cells was determined by measuring the absorbance of OD610.
# [2] = tested on: Corynebacterium glutamicum R; conditions: aerobic shaking culture 33° C., A-liquid medium
# Protocol: Tests regarding growth inhibition by 2-phenylethanol in aerobic culture were carried out on Corynebacterium glutamicum, Escherichia coli, Pseudomonas putida, and Kluyveromyces marxianus. Corynebacterium glutamicum R was applied to an A-agar plate (the same as that described above), and was left to stand in a dark place at 33° C. for 15 hours. One platinum loop of Corynebacterium glutamicum R grown on the plate described above was inoculated in a test tube having therein 10 ml of the A-liquid medium, and aerobic shaking culture was carried out at 33° C. for 13 hours. Corynebacterium glutamicum R grown under the above-described conditions was inoculated in 100 ml of the A-liquid medium (the same as that described above) so that the initial bacterial cell concentration OD610=0.05 was achieved. Simultaneously, 2-phenylethanol was added so that the final concentrations thereof became 0, 10, 20, 30, 40, and 50 mM, and aerobic shaking culture was carried out at 33° C. The growth of bacterial cells was determined by measuring the absorbance of OD610.
# [3] = tested on: Kluyveromyces marxianus; conditions: aerobic shaking culture 40° C., YPD-liquid medium
# Protocol: Tests regarding growth inhibition by 2-phenylethanol in aerobic culture were carried out on Corynebacterium glutamicum, Escherichia coli, Pseudomonas putida, and Kluyveromyces marxianus. Further, Kluyveromyces marxianus was applied to a YPD-agar plate [containing 2% polypeptone, 1% yeast extract, 2% glucose, and 1.5% agar], and was left to stand at 30° C. for 15 hours in a dark place. One platinum loop of Kluyveromyces marxianus grown on the plate described above was inoculated in a test tube having therein 10 ml of a YPD-liquid medium [containing 2% polypeptone, 1% yeast extract, and 2% glucose], and was subjected to aerobic shaking culture at 40° C. for 13 hours. Kluyveromyces marxianus grown under the above-described conditions was inoculated in 100 ml of the YPD-liquid medium so that the initial bacterial cell concentration OD610=0.05 was achieved. Simultaneously, 2-phenylethanol was added so that the final concentrations thereof became 0, 10, 20, 30, 40, and 50 mM, and aerobic shaking culture was carried out at 40° C. The growth of bacterial cells was determined by measuring the absorbance of OD610.
# [4] = tested on: Pseudomonas putida S12; conditions: aerobic shaking culture 30° C., LB(+glucose)-liquid medium
# Protocol: Tests regarding growth inhibition by 2-phenylethanol in aerobic culture were carried out on Corynebacterium glutamicum, Escherichia coli, Pseudomonas putida, and Kluyveromyces marxianus. Pseudomonas putida S12 was applied to an LB-agar plate [containing 1% polypeptone, 0.5% yeast extract, 0.5% sodium chloride, and 1.5% agar], and was left to stand at 30° C. for 15 hours in a dark place. One platinum loop of Pseudomonas putida S12 grown on the plate described above was inoculated in a test tube having therein 10 ml of an LB(+glucose)-liquid medium [containing 1% polypeptone, 0.5% yeast extract, 0.5% sodium chloride, and 0.4% glucose], and was subjected to aerobic shaking culture at 33° C. for 13 hours. The Pseudomonas putida S12 strain grown under the above-described conditions was inoculated in 100 ml of the LB(+glucose)-liquid medium so that the initial bacterial cell concentration OD610=0.05 was achieved. Simultaneously, 2-phenylethanol was added so that the final concentrations thereof became 0, 10, 20, 30, 40, and 50 mM, and aerobic shaking culture was carried out at 30° C. The growth of bacterial cells was determined by measuring the absorbance of OD610.
smiles,measurement,setting,value
OCCc1ccccc1 [2-phenylethanol],growth of Escherichia coli,[1]; 20 mM 2-phenylethanol,significantly inhibited; also recorded: strongly inhibited
same,growth of Escherichia coli,[1]; 30 mM 2-phenylethanol,substantially completely inhibited
same,growth of Corynebacterium glutamicum,[2]; 20 mM 2-phenylethanol,not influenced at all
same,growth of Corynebacterium glutamicum,[2]; 30 mM 2-phenylethanol,"delayed, but was improved 24 hours after"
same,growth of Kluyveromyces marxianus,[3]; 20 mM 2-phenylethanol,strongly inhibited
same,growth of Kluyveromyces marxianus,[3]; 30 mM 2-phenylethanol,substantially completely inhibited
same,growth of Pseudomonas putida,[4]; 20 mM 2-phenylethanol,strongly inhibited
same,growth of Pseudomonas putida,[4]; 30 mM 2-phenylethanol,substantially completely inhibited
